Several values for one entry are separate records, joined by “and”; a condition that tells them apart may be missing. Equal values may be shown once.
Tests used:
[1] = biological target: tumor-associated hCA isoforms; parameters: method as in PMID 18600270, PMID 18374572; conditions: cited from earlier work
mitochondrial hCAs = biological target: mitochondrial hCAs; parameters: method as in PMID 18600270, PMID 18374572; conditions: read-out: inhibition for mitochondrial hCAs (moderate); cited from earlier work
cytosolic hCAs = biological target: cytosolic hCAs; parameters: method as in PMID 18600270, PMID 18374572; conditions: read-out: inhibition for cytosolic hCAs (weak); cited from earlier work
hCA-IX [2] = biological target: T1, hCA-IX (Homo sapiens, UniProt Q16790); parameters: purchased BPS Bioscience 71101; conditions: compared with compound 2; no reference given; cited from earlier work
hCA-II = hCA-II (Homo sapiens, UniProt P00918); assay: colorimetric CA-inhibition assay based on CA-esterase activity, hCA-II; conditions: hCA-II IC50, three replicate experiments; N/D = non-detected IC50 within the range of the tested concentrations
Description: (§2) Based on the kit manufacturer’s protocol, the candidate inhibitors were dissolved in DMSO at 10 × highest final test concentration and specific aliquots of such working dilutions were incubated with the target hCA isozyme for 10 min at room temperature prior to permit the formation of the enzyme-inhibitor complex. Triplicate experiments were performed for each candidate inhibitor concentration. Parallel wells of solvent and enzyme controls were prepared to test the solvent impact upon the activity of the target enzyme. […] Following incubation, the CA-substrate was added and changes in absorbance (at 405 nm) were monitored for 60 min at room temperature within the kinetic mode. The negative enzyme control wells (without added compounds) were arbitrarily set as 100% enzyme activity. […] Absorbance readings from background wells were subtracted from the compound assay wells in order to account for background hydrolysis activity caused by the buffer solution [44, 45].

hCA-IX [3] = biological target: T1, hCA-IX; assay: colorimetric CA-inhibition assay based on CA-esterase activity, hCA-IX; conditions: for IC50: hCA-IX IC50, three replicate experiments; for Selectivity Ratio II/IX: ratio of IC50 values for isozyme CA-II relative to CA-IX
Description: as §2

[4] = tested on: A-498 kidney carcinoma cells; assay: MTT cell proliferation assay, A-498; format: cell-based, human; conditions: ±SEM
Description: (§1) Cells were cultured in 96-well plate, at cell density of 1.2–1.8 × 10^4 cells/well, using Dulbecco’s Modified Eagle Medium (Invitrogen^TM, Carlsbad, CA, USA) supplemented with 10% (w/v) fetal bovine serum (Hyclone^TM, Marlborough, MA, USA), 10 ug/mL of insulin (Sigma-Aldrich^TM, St. Louis, MO, USA), and 1% (w/v) penicillin-streptomycin (Sigma-Aldrich^TM, St. Louis, MO, USA). Following 24h-incubation period under 5% CO2 at 37 °C, cells were treated with compounds’ serial concentrations (0.1 µM–100 µM) in DMSO, where the DMSO final concentration in the culture medium never exceeded 0.2% (v/v). Subsequently, the treated microplates were incubated for 48 h at 5% CO2/37 °C prior to examination under the inverted microscope and proceeding for the MTT assay. The culture medium was discarded and 100 µL of complete medium comprising 5 mg/mL MTT dye were dispensed within every well, then plates were reincubated for 2 h at 5% CO2/37 °C. […] Color intensity within each well was measured spectrophotometrically using the ROBONIK-P2000® ELISA microplate reader (Bio-Tek^TM, Winooski, VT, USA) at 450 nm while subtracting the background absorbance of multi well plates at 690 nm. The experiment was conducted in triplicates and IC50 values were estimated through linear regression between the logarithm-transformed compound concentrations and corresponding % cell viability = (mean absorbance in test wells/mean absorbance in control wells) ∗ 100, having the response variable slope (four parameters) for all samples.

[5] = tested on: SCaBER bladder squamous cell carcinoma cells; assay: MTT cell proliferation assay, SCaBER; format: cell-based; conditions: Homo sapiens, 48 h, ±SEM
Description: as §1

In the case of `CCCCNc1cc(C(=O)O)cc(S(N)(=O)=O)c1Oc1ccccc1` [Bumetanide, bumetanide], the “Ki on the tumor-associated hCA isoforms” value [1] is given as 21.1 to 25.8 nM, the Ki (mitochondrial hCAs) is given as 250 to 700 nM and the Ki (cytosolic hCAs) is given as 2570 to 6980 nM. For the same compound, the “hCA-IX inhibition of bumetanide” value (hCA-IX [2]) was ~ 23 nM.
With `CCCCNc1cc(C(=O)OC)cc(S(N)(=O)=O)c1Oc1ccccc1` [Compound 2, bumetanide methyl ester] the IC50 (hCA-II) was 668 nM, the IC50 (hCA-IX [3]) was 23.7 nM and the “Selectivity Ratio II/IX” value (hCA-IX [3]) was 28.1.
For `CCCCNc1cc(C(=O)NN)cc(S(N)(=O)=O)c1Oc1ccccc1` [Compound 3, bumetanide hydrazide], the IC50 (hCA-II) was 1610 nM, the IC50 (hCA-IX [3]) was 7.87 nM and the “Selectivity Ratio II/IX” value (hCA-IX [3]) was 205.1.
With `CCCCNc1cc(C(=O)N2N=CCC2=O)cc(S(N)(=O)=O)c1Oc1ccccc1` [Compound 4] the IC50 (hCA-II) was 1050 nM, the IC50 (hCA-IX [3]) was 16.4 nM and the “Selectivity Ratio II/IX” value (hCA-IX [3]) was 63.9.
With `CCCCNc1cc(-c2n[nH]c(=S)o2)cc(S(N)(=O)=O)c1Oc1ccccc1` [Compound 5] the IC50 (hCA-II) was 486 nM, the IC50 (hCA-IX [3]) was 12.4 nM and the “Selectivity Ratio II/IX” value (hCA-IX [3]) was 39.0.
Work on `CCCCNc1cc(C(=O)n2nc(C)cc2C)cc(S(N)(=O)=O)c1Oc1ccccc1` [Compound 6a] yielded an IC50 (hCA-IX [3]) of 16.6 nM.
With `CCCCNc1cc(C(=O)n2nc(C)cc2-c2ccccc2)cc(S(N)(=O)=O)c1Oc1ccccc1` [Compound 6b] the IC50 (hCA-II) was 858 nM, the IC50 (hCA-IX [3]) was 5.43 nM and the “Selectivity Ratio II/IX” value (hCA-IX [3]) was 158.9.
In the case of `CCCCNc1cc(C(=O)NNC(=S)Nc2ccccc2)cc(S(N)(=O)=O)c1Oc1ccccc1` [Compound 7a], the IC50 (hCA-II) is reported as 1570 nM, the IC50 (hCA-IX [3]) is reported as 17.7 nM and the “Selectivity Ratio II/IX” value (hCA-IX [3]) is reported as 88.6.
With `C=CCNC(=S)NNC(=O)c1cc(NCCCC)c(Oc2ccccc2)c(S(N)(=O)=O)c1` [Compound 7b] the IC50 (hCA-II) was 1340 nM, the IC50 (hCA-IX [3]) was 14.4 nM and the “Selectivity Ratio II/IX” value (hCA-IX [3]) was 93.4.
With `CCCCNc1cc(C(=O)NNC(=S)Nc2ccc(Br)cc2)cc(S(N)(=O)=O)c1Oc1ccccc1` [Compound 7c] the IC50 (hCA-II) was 1540 nM, the IC50 (hCA-IX [3]) was 12.9 nM and the “Selectivity Ratio II/IX” value (hCA-IX [3]) was 118.9.
Work on `CCCCNc1cc(C(=O)N/N=c2\scc(-c3ccc(Cl)cc3)n2-c2ccccc2)cc(S(N)(=O)=O)c1Oc1ccccc1` [Compound 8a] yielded an IC50 ([4]; 48 h) of 15700 ± 630 nM, an IC50 ([4]; Homo sapiens, A498, 48 h) of 15600 nM and an IC50 [5] of 28400 ± 1400 nM. The IC50 (hCA-II) was 251 nM, the IC50 (hCA-IX [3]) was 6.53 nM and the “Selectivity Ratio II/IX” value (hCA-IX [3]) was 38.6.
In the case of `CCCCNc1cc(C(=O)N/N=c2\scc(-c3ccc(C)cc3)n2-c2ccccc2)cc(S(N)(=O)=O)c1Oc1ccccc1` [Compound 8b], the IC50 (hCA-II) is reported as 1320 nM, the IC50 (hCA-IX [3]) is reported as 13 nM and the “Selectivity Ratio II/IX” value (hCA-IX [3]) is reported as 101.6.
For `CCCCNc1cc(C(=O)N/N=c2\scc(-c3ccc(OC)cc3)n2-c2ccccc2)cc(S(N)(=O)=O)c1Oc1ccccc1` [Compound 8c], the IC50 (hCA-II) was 474 nM, the IC50 (hCA-IX [3]) was 12.6 nM and the “Selectivity Ratio II/IX” value (hCA-IX [3]) was 37.5.
With `C=CCn1c(-c2ccc(Cl)cc2)cs/c1=N\NC(=O)c1cc(NCCCC)c(Oc2ccccc2)c(S(N)(=O)=O)c1` [Compound 8d] the IC50 (hCA-II) was 5120 nM, the IC50 (hCA-IX [3]) was 6.36 nM and the “Selectivity Ratio II/IX” value (hCA-IX [3]) was 804.6.
In the case of `C=CCn1c(-c2ccc(C)cc2)cs/c1=N\NC(=O)c1cc(NCCCC)c(Oc2ccccc2)c(S(N)(=O)=O)c1` [Compound 8e], the IC50 (hCA-II) is reported as 518 nM, the IC50 (hCA-IX [3]) is reported as 11.5 nM and the “Selectivity Ratio II/IX” value (hCA-IX [3]) is reported as 44.9.
With `C=CCn1c(-c2ccc(OC)cc2)cs/c1=N\NC(=O)c1cc(NCCCC)c(Oc2ccccc2)c(S(N)(=O)=O)c1` [Compound 8f] the IC50 (hCA-II) was 999 nM, the IC50 (hCA-IX [3]) was 13.4 nM and the “Selectivity Ratio II/IX” value (hCA-IX [3]) was 74.5.
With `CCCCNc1cc(C(=O)N/N=c2\scc(-c3ccc(Cl)cc3)n2-c2ccc(Br)cc2)cc(S(N)(=O)=O)c1Oc1ccccc1` [Compound 8g] the IC50 (hCA-II) was 784 nM, the IC50 (hCA-IX [3]) was > 7 nM and 7.18 nM and the “Selectivity Ratio II/IX” value (hCA-IX [3]) was 109.2.
For `CCCCNc1cc(C(=O)N/N=c2\scc(-c3ccc(C)cc3)n2-c2ccc(Br)cc2)cc(S(N)(=O)=O)c1Oc1ccccc1` [Compound 8h], the IC50 ([4]; Homo sapiens, A498, 48 h) was 6550 ± 260 nM, the IC50 [5] was 78040 ± 290 nM and the IC50 (hCA-II) was 205 nM and 209 nM. The IC50 (hCA-IX [3]) was > 7 nM and 14.3 nM and the “Selectivity Ratio II/IX” value (hCA-IX [3]) was 14.5.
For `CCCCNc1cc(C(=O)N/N=c2\scc(-c3ccc(OC)cc3)n2-c2ccc(Br)cc2)cc(S(N)(=O)=O)c1Oc1ccccc1` [Compound 8i], the IC50 (hCA-II) was 426 nM, the IC50 (hCA-IX [3]) was > 7 nM and 10.6 nM and the “Selectivity Ratio II/IX” value (hCA-IX [3]) was 40.3.
In the case of `CCCCNc1cc(-c2n[nH]c(=S)n2-c2ccccc2)cc(S(N)(=O)=O)c1Oc1ccccc1` [Compound 9a], the IC50 (hCA-II) is reported as 4060 nM, the IC50 (hCA-IX [3]) is reported as 5.31 nM and the “Selectivity Ratio II/IX” value (hCA-IX [3]) is reported as 764.8.
`C=CCn1c(-c2cc(NCCCC)c(Oc3ccccc3)c(S(N)(=O)=O)c2)n[nH]c1=S` [Compound 9b] showed an IC50 ([4]; 48 h) of 16100 ± 1400 nM, an IC50 ([4]; Homo sapiens, A498, 48 h) of 16000 nM and an IC50 [5] of 78100 ± 1700 nM. The IC50 (hCA-II) was 205 nM, the IC50 (hCA-IX [3]) was 7.25 nM and the “Selectivity Ratio II/IX” value (hCA-IX [3]) was 28.3.

Source: paper PMC7558282, “The Anticancer Activity for the Bumetanide-Based Analogs via Targeting the Tumor-Associated Membrane-Bound Human Carbonic Anhydrase-IX Enzyme” (Pharmaceuticals, 2020)
